Here are results for 12 compounds from patent publication US20220251141A1, “IMMUNOMODULATORS” (Bristol-Myers Squibb Company, priority 2019, published 2022).

Numbered stars: 1 amine (or outer) side, 2 acyl side, 3 side chain; on linkers, the order of the positions; unused ones are H or OH. Bridge positions count the residues as written; N and C are the ends. Square brackets hold non-standard residues; d marks the D form. Peptide text beside a SMILES is read from it. * marks the point of attachment. Trp(1-CH2CO2Me) = COC(=O)Cn1cc(C[C@H](N)C(=O)O)c2ccccc21; Trp(1-CH2COOH) = N[C@@H](Cc1cn(CC(=O)O)c2ccccc12)C(=O)O; Trp(1-Me) = Cn1cc(C[C@H](N)C(=O)O)c2ccccc21; Phe(4-F) = N[C@@H](Cc1ccc(F)cc1)C(=O)O; Dab(CONH2) = NC(=O)NCC[C@H](N)C(=O)O; X9 = N#CNCC[C@H](N[*:1])C(=O)[*:2]; X8 = N#CNC[C@H](N[*:1])C(=O)[*:2]; Hyp = O=C(O)[C@@H]1C[C@@H](O)CN1; NMeNle = CCCC[C@H](NC)C(=O)O; Pen = CC(C)(S)[C@H](N)C(=O)O; Decanoyl = CCCCCCCCCC(=O)*; NMeC = CN[C@@H](CS)C(=O)O; Pip = O=C(O)[C@@H]1CCCCN1; NMeA = CN[C@@H](C)C(=O)O; Dab = NCC[C@H](N)C(=O)O; X13 = CCCCCCCCCCOC(=O)*; Dap = NC[C@H](N)C(=O)O; Piv = CC(C)(C)C(=O)*; X1 = CC(=O)NC(=O)*; Moc = COC(=O)*

In the experiment the target is T1, PD-1/PD-L1 (Homo sapiens, UniProt Q9NZQ7).
T1 construct: TVMV protease site linker (C); made in house; host or cells: HEK293T cells
The experiment in a line: PD-1/PD-L1 Homogenous Time-Resolved Fluorescence (HTRF) binding assay. The following applies: PD-L1-His 10 nM final, PD-1-Ig 20 nM final; inhibitors pre-incubated with PD-L1-His for 15 m. From the text:
The ability of the compounds of formula (I) to bind to PD-L1 was investigated using a PD-1/PD-L1 Homogenous Time-Resolved Fluorescence (HTRF) binding assay.
The interaction of PD-1 and PD-L1 can be assessed using soluble, purified preparations of the extracellular domains of the two proteins. The PD-1 and PD-L1 protein extracellular domains were expressed as fusion proteins with detection tags, for PD-1, the tag was the Fc portion of Immunoglobulin (PD-1-Ig) and for PD-L1 it was the 6 histidine motif (PD-L1-His). All binding studies were performed in an HTRF assay buffer consisting of dPBS supplemented with 0.1% […] bovine serum albumin and 0.05% (v/v) Tween-20. For the h/PD-L1-His binding assay, inhibitors were pre-incubated with PD-L1-His (10 nM final) for 15 m in 4 μl of assay buffer, followed by addition of PD-1-Ig (20 nM final) in 1 μl of assay buffer and further incubation for 15 m. HTRF detection was achieved using europium cryptate-labeled anti-Ig (1 nM final) and allophycocyanin (APC) labeled anti-His (20 nM final). Antibodies were diluted in HTRF detection buffer and 5 μl was dispensed on top of the binding reaction. The reaction mixture was allowed to equilibrate for 30 minutes and the resulting signal (665 nm/620 nm ratio) was obtained using an EnVision fluorometer. Additional binding assays were established between the human proteins PD-1-Ig/PD-L2-His (20 & 5 nM, respectively) and CD80-His/PD-L1-Ig (100 & 10 nM, respectively).
Recombinant Proteins: Human PD-1 (25-167) with a C-terminal human Fc domain of immunoglobulin G (Ig) epitope tag [hPD-1 (25-167)-3S-IG] and human PD-L1 (18-239) with a C-terminal His epitope tag [hPD-L1(18-239)-TVMV-His] were expressed in HEK293T cells and purified sequentially by Protein A affinity chromatography and size exclusion chromatography. Human PD-L2-His and CD80-His was obtained through commercial sources.
Table 3 lists the IC50 values for representative examples of this disclosure measured in the PD-1/PD-L1 Homogenous Time-Resolved Fluorescence (HTRF) binding assay.
Take `CCCC[C@H]1C(=O)N(C)[C@@H](CCCC)C(=O)N[C@@H](CC(C)C)C(=O)N[C@H](C(N)=O)C(C)(C)SCC(=O)N[C@@H](Cc2ccc(F)cc2)C(=O)N2CCCC[C@H]2C(=O)N[C@@H](CC(=O)O)C(=O)N2CCC[C@H]2C(=O)N[C@@H](CNC(=O)C(C)(C)C)C(=O)N[C@@H](CC(C)C)C(=O)N2C[C@H](O)C[C@H]2C(=O)N[C@@H](Cc2c[nH]c3ccccc23)C(=O)N[C@@H](CCNC(=O)C(C)(C)C)C(=O)N[C@@H](Cc2cn(CC(=O)O)c3ccccc23)C(=O)N1C` [Example 20180] ({CH2CO}-[Phe(4-F)][Pip]DP[Dap](Piv)L[Hyp]W[Dab](Piv)[Trp(1-CH2COOH)][NMeNle][NMeNle]L[Pen]-NH2; thioether N-14): the IC50 (commonly the concentration at which inhibition is half-maximal) came out at 14.1 nM.

`CCCCCCCCCCOC(=O)NCC[C@@H]1NC(=O)[C@H](Cc2c[nH]c3ccccc23)NC(=O)[C@@H]2C[C@@H](O)CN2C(=O)[C@H](CC(C)C)NC(=O)[C@H](CNC(=O)OCCCCCCCCCC)NC(=O)[C@@H]2CCCN2C(=O)[C@H](CC(N)=O)NC(=O)[C@H](C)N(C)C(=O)[C@H](Cc2ccc(O)cc2)NC(=O)CSC[C@@H](C(=O)NCC(N)=O)NC(=O)[C@H](CC(C)C)NC(=O)[C@H](CCCC)N(C)C(=O)[C@H](CCCC)N(C)C(=O)[C@H](Cc2cn(CC(=O)OC)c3ccccc23)NC1=O` [Example 1015] ({CH2CO}-Y[NMeA]NP[Dap](X13)L[Hyp]W[Dab](X13)[Trp(1-CH2CO2Me)][NMeNle][NMeNle]LCG-NH2; thioether N-14) came in with an IC50 above 10000 nM.

Regarding `CCCC[C@H]1C(=O)N(C)[C@@H](CCCC)C(=O)N[C@@H](CCC(N)=O)C(=O)N[C@H](C(N)=O)C(C)SCC(=O)N[C@@H](Cc2ccc(F)cc2)C(=O)N2CCCC[C@H]2C(=O)N[C@@H](CC(N)=O)C(=O)N2CCC[C@H]2C(=O)N[C@@H](CNC(=O)C(C)(C)C)C(=O)N[C@@H](C(C)C)C(=O)N2C[C@H](O)C[C@H]2C(=O)N[C@@H](Cc2c[nH]c3ccccc23)C(=O)N[C@@H](CCN)C(=O)N[C@@H](Cc2cn(C)c3ccccc23)C(=O)N1C` (stereo partly drawn) [Example 20220], the IC50 amounted to 16.6 nM.

As to `CCCCCCCCCC(=O)NCC[C@@H]1NC(=O)[C@H](Cc2c[nH]c3ccccc23)NC(=O)[C@@H]2C[C@@H](O)CN2C(=O)[C@H](CC(C)C)NC(=O)[C@H](CNC(=O)CCCCCCCCC)NC(=O)[C@@H]2CCCN2C(=O)[C@H](CC(N)=O)NC(=O)[C@H](C)N(C)C(=O)[C@H](Cc2ccc(O)cc2)NC(=O)CSC[C@@H](C(=O)NCC(N)=O)NC(=O)[C@H](CC(C)C)NC(=O)[C@H](CCCC)N(C)C(=O)[C@H](CCCC)N(C)C(=O)[C@H](Cc2cn(CC(=O)O)c3ccccc23)NC1=O` [Example 1003] ({CH2CO}-Y[NMeA]NP[Dap](Decanoyl)L[Hyp]W[Dab](Decanoyl)[Trp(1-CH2COOH)][NMeNle][NMeNle]LCG-NH2; thioether N-14), the IC50 came out at 37 nM.

On to `CCCC[C@H]1C(=O)N(C)[C@@H](CCCC)C(=O)N[C@@H](CC(C)C)C(=O)N[C@H](C(N)=O)CSCC(=O)N[C@@H](Cc2ccc(F)cc2)C(=O)N2CCCC[C@H]2C(=O)N[C@@H](CC(N)=O)C(=O)N2CCC[C@H]2C(=O)N[C@@H](CNC(=O)C(C)(C)C)C(=O)N[C@@H](CC(C)C)C(=O)N2C[C@H](O)C[C@H]2C(=O)N[C@@H](Cc2c[nH]c3ccccc23)C(=O)N[C@@H](CCN)C(=O)N[C@@H](Cc2cn(CC(=O)O)c3ccccc23)C(=O)N1C` [Example 20300] ({CH2CO}-[Phe(4-F)][Pip]NP[Dap](Piv)L[Hyp]W[Dab][Trp(1-CH2COOH)][NMeNle][NMeNle]LC-NH2; thioether N-14), for which the concentration for half-maximal inhibition (IC50) was 38.2 nM.

With `CCCC[C@H]1C(=O)N(C)[C@@H](CCCC)C(=O)N[C@@H](CC(C)C)C(=O)N(C)[C@H](C(N)=O)CSCC(=O)N[C@@H](Cc2ccc(F)cc2)C(=O)N2CCCC[C@H]2C(=O)N[C@@H](CC(=O)O)C(=O)N2CCC[C@H]2C(=O)N[C@@H](CN)C(=O)N[C@@H](CC(C)C)C(=O)N2C[C@H](O)C[C@H]2C(=O)N[C@@H](Cc2c[nH]c3ccccc23)C(=O)N[C@@H](CCN)C(=O)N[C@@H](Cc2cn(CC(=O)O)c3ccccc23)C(=O)N1C` [Example 10003] ({CH2CO}-[Phe(4-F)][Pip]DP[Dap]L[Hyp]W[Dab][Trp(1-CH2COOH)][NMeNle][NMeNle]L[NMeC]-NH2; thioether N-14), the concentration for half-maximal inhibition (IC50) was determined as 12 nM.

`CCCC[C@H]1C(=O)N(C)[C@@H](CCCC)C(=O)N[C@@H](CC(C)C)C(=O)N[C@H](C(=O)NCC(N)=O)CSCC(=O)N[C@@H](Cc2ccc(O)cc2)C(=O)N(C)[C@@H](C)C(=O)N[C@@H](CC(N)=O)C(=O)N2CCC[C@H]2C(=O)N[C@@H](CNC#N)C(=O)N[C@@H](CC(C)C)C(=O)N2C[C@H](O)C[C@H]2C(=O)N[C@@H](Cc2c[nH]c3ccccc23)C(=O)N[C@@H](CCNC#N)C(=O)N[C@@H](Cc2cn(CC(=O)OC)c3ccccc23)C(=O)N1C` [Example 1020] ({CH2CO}-Y[NMeA]NP[X8]L[Hyp]W[X9][Trp(1-CH2CO2Me)][NMeNle][NMeNle]LCG-NH2; thioether N-14) displayed an IC50 of 7.1 nM.

The compound `CCCC[C@H]1C(=O)N(C)[C@@H](CCCC)C(=O)N[C@@H](CC(C)C)C(=O)N[C@H](C(N)=O)CSCC(=O)N[C@@H](Cc2ccc(F)cc2)C(=O)N2CCCC[C@H]2C(=O)N[C@@H](CC(=O)O)C(=O)N2CCC[C@H]2C(=O)N[C@@H](CNC(=O)C(C)(C)C)C(=O)N[C@@H](CC(C)C)C(=O)N2C[C@H](O)C[C@H]2C(=O)N[C@@H](Cc2c[nH]c3ccccc23)C(=O)N[C@@H](CCNC(=O)C(C)(C)C)C(=O)N[C@@H](Cc2cn(CC(=O)O)c3ccccc23)C(=O)N1C` [Example 20250] ({CH2CO}-[Phe(4-F)][Pip]DP[Dap](Piv)L[Hyp]W[Dab](Piv)[Trp(1-CH2COOH)][NMeNle][NMeNle]LC-NH2; thioether N-14) gave an IC50 of 22.9 nM.

The compound `CCCC[C@H]1C(=O)N(C)[C@@H](CCCC)C(=O)N[C@@H](CC(C)C)C(=O)N[C@H](C(=O)NCC(N)=O)CSCC(=O)N[C@@H](Cc2ccc(O)cc2)C(=O)N(C)[C@@H](C)C(=O)N[C@@H](CC(N)=O)C(=O)N2CCC[C@H]2C(=O)N[C@@H](CNC(=O)NC(C)=O)C(=O)N[C@@H](CC(C)C)C(=O)N2C[C@H](O)C[C@H]2C(=O)N[C@@H](Cc2c[nH]c3ccccc23)C(=O)N[C@@H](CCNC(N)=O)C(=O)N[C@@H](Cc2cn(CC(=O)O)c3ccccc23)C(=O)N1C` [Example 1030] ({CH2CO}-Y[NMeA]NP[Dap](X1)L[Hyp]W[Dab(CONH2)][Trp(1-CH2COOH)][NMeNle][NMeNle]LCG-NH2; thioether N-14) gave an IC50 of 4 nM.

`CCCC[C@H]1C(=O)N(C)[C@@H](CCCC)C(=O)N[C@@H](CC(C)C)C(=O)N[C@H](C(N)=O)CSCC(=O)N[C@@H](Cc2ccc(F)cc2)C(=O)N2CCCC[C@H]2C(=O)N[C@@H](CC(=O)O)C(=O)N2CCC[C@H]2C(=O)N[C@@H](CNC(=O)C(C)(C)C)C(=O)N[C@@H](CC(C)C)C(=O)N2C[C@H](O)C[C@H]2C(=O)N[C@@H](Cc2c[nH]c3ccccc23)C(=O)N[C@@H](CCN)C(=O)N[C@@H](Cc2cn(C)c3ccccc23)C(=O)N1C` [Example 20190] ({CH2CO}-[Phe(4-F)][Pip]DP[Dap](Piv)L[Hyp]W[Dab][Trp(1-Me)][NMeNle][NMeNle]LC-NH2; thioether N-14) came in with an IC50 of 14.2 nM.

For `CCCC[C@H]1C(=O)N(C)[C@@H](CCCC)C(=O)N[C@@H](CC(C)C)C(=O)N[C@H](C(=O)NCC(N)=O)CSCC(=O)N[C@@H](Cc2ccc(O)cc2)C(=O)N(C)[C@@H](C)C(=O)N[C@@H](CC(N)=O)C(=O)N2CCC[C@H]2C(=O)N[C@@H](CNC(=O)OC)C(=O)N[C@@H](CC(C)C)C(=O)N2C[C@H](O)C[C@H]2C(=O)N[C@@H](Cc2c[nH]c3ccccc23)C(=O)N[C@@H](CCNC(=O)OC)C(=O)N[C@@H](Cc2cn(CC(=O)OC)c3ccccc23)C(=O)N1C` [Example 1017] ({CH2CO}-Y[NMeA]NP[Dap](Moc)L[Hyp]W[Dab](Moc)[Trp(1-CH2CO2Me)][NMeNle][NMeNle]LCG-NH2; thioether N-14), the concentration for half-maximal inhibition (IC50) came out at 5.9 nM.

Consider `CCCC[C@H]1C(=O)N(C)[C@@H](CCCC)C(=O)N[C@@H](C(C)C)C(=O)N[C@H](C(N)=O)CSCC(=O)N[C@@H](Cc2ccc(F)cc2)C(=O)N2CCCC[C@H]2C(=O)N[C@@H](CC(=O)O)C(=O)N2CCC[C@H]2C(=O)N[C@@H](CNC(=O)C(C)(C)C)C(=O)N[C@@H](CCCCN)C(=O)N2C[C@H](O)C[C@H]2C(=O)N[C@@H](Cc2c[nH]c3ccccc23)C(=O)N[C@@H](CCNC(=O)C(C)(C)C)C(=O)N[C@@H](Cc2cn(CC(=O)O)c3ccccc23)C(=O)N1C` [Example 20080] ({CH2CO}-[Phe(4-F)][Pip]DP[Dap](Piv)K[Hyp]W[Dab](Piv)[Trp(1-CH2COOH)][NMeNle][NMeNle]VC-NH2; thioether N-14), for which the IC50 was determined as 10.7 nM.
